Results from ChEMBL document CHEMBL1649380, “Prediction of drug intestinal absorption by new linear and non-linear QSPR” (Eur J Med Chem, 2011).

Assay: Drug absorption in human assessed as human intestinal absorption rate
Assay type: ADME, tissue-based, Intestine

| Compound | log10(%HIA +10) |
| --- | --- |
| O=C(COCCOCCOCC(=O)Nc1c(I)cc(I)c(C(=O)O)c1I)Nc1c(I)cc(I)c(C(=O)O)c1I [IOTROXIC ACID] | 1.176 |
| CC(C)C[C@H]1C(=O)N2CCC[C@H]2[C@]2(O)O[C@](NC(=O)[C@@H]3C=C4c5cccc6[nH]c(Br)c(c56)C[C@H]4N(C)C3)(C(C)C)C(=O)N12 [BROMOCRIPTINE] | 1.58 |
| CCOC(=O)[C@H](CCc1ccccc1)N[C@H]1CCc2ccccc2N(CC(=O)O)C1=O [BENAZEPRIL] | 1.672 |
| CCCc1c2oc(C(=O)O)cc(=O)c2cc2c(=O)cc(C(=O)O)n(CC)c12 [NEDOCROMIL] | 1.114 |
| CC(C)NCC(O)COc1ccc(CCNC(=O)NC(C)C)cc1 (configuration not stated) [PAFENOLOL] | 1.591 |
| CC(C)NCC(O)c1cc(O)cc(O)c1 (configuration not stated) [METAPROTERENOL] | 1.732 |
| Cn1c(=O)c2c(ncn2CCCNCC(O)c2cc(O)cc(O)c2)n(C)c1=O (configuration not stated) [REPROTEROL] | 1.845 |
| O=c1[nH]c2ccccc2n1C1CCN(CCCC(c2ccc(F)cc2)c2ccc(F)cc2)CC1 [PIMOZIDE] | 1.903 |
| Cc1c(OCC(F)(F)F)ccnc1C[S+]([O-])c1nc2ccccc2[nH]1 (configuration not stated) [LANSOPRAZOLE] | 1.978 |
| CC(=O)OCC(CCn1cnc2cnc(N)nc21)COC(C)=O [FAMCICLOVIR] | 1.903 |
| O=C(O)Cc1ccccc1Nc1c(Cl)cccc1Cl [DICLOFENAC] | 2.041 |
| NCC[C@H](O)C(=O)N[C@@H]1C[C@H](N)[C@@H](O[C@H]2O[C@H](CN)CC[C@H]2N)[C@H](O)[C@H]1O[C@H]1O[C@H](CO)[C@@H](O)[C@H](N)[C@H]1O [ARBEKACIN] | 1 |
| CC(C)(C)NCC(O)c1cc(O)cc(O)c1 (configuration not stated) [TERBUTALINE] | 1.857 |
| Nc1cc(N2CCCCC2)nc(N)[n+]1[O-] [MINOXIDIL] | 2.033 |
| Cc1c(N(C)C)c(=O)n(-c2ccccc2)n1C [AMINOPYRINE] | 2.041 |
| O=C(c1ccccc1)c1ccc2n1CCC2C(=O)O (configuration not stated) [KETOROLAC] | 2 |
| N=c1nc2n(cc1F)[C@@H]1O[C@H](CO)[C@@H](O)[C@@H]1O2 [FLUROCITABINE] | 1.623 |
| Nc1ccn([C@@H]2CS[C@H](CO)O2)c(=O)n1 [LAMIVUDINE] | 1.987 |
| CC(CCc1ccccc1)NCC(O)c1ccc(O)c(C(N)=O)c1 (configuration not stated) [LABETALOL] | 2.021 |
| OC[C@@H](O)[C@@H](O)[C@H](O)[C@H](O)CO [MANNITOL] | 1.415 |
| CCN(CC)C(=S)SSC(=S)N(CC)CC | 2.029 |
| CC1(C)S[C@@H]2[C@H](NC(=O)[C@H](NC(=O)N3CCN(S(C)(=O)=O)C3=O)c3ccccc3)C(=O)N2[C@H]1C(=O)O [MEZLOCILLIN] | 1 |
| CC(=O)NCCCS(=O)(=O)O [ACAMPROSATE] | 1.322 |
| CCN(C)C(=O)Oc1cccc([C@H](C)N(C)C)c1 [RIVASTIGMINE] | 2.041 |
| NCCCC(N)(C(=O)O)C(F)F (configuration not stated) [EFLORNITHINE] | 1.813 |
| CCOC(=O)Nc1ccc2c(c1)N(C(=O)CCN1CCOCC1)c1ccccc1S2 [MORICIZINE] | 1.991 |

| Compound | log10(%HIA +10) |
| --- | --- |
| O=C(O)P(=O)(O)O [FOSCARNET] | 1.431 |
| OC[C@H]1O[C@H](OC[C@H]2O[C@H](O[C@]3(CO)O[C@H](CO)[C@@H](O)[C@@H]3O)[C@H](O)[C@@H](O)[C@@H]2O)[C@H](O)[C@@H](O)[C@H]1O [RAFFINOSE] | 1.013 |
| CC(C)(C)NCC(O)COc1cccc2c1CC(O)C(O)C2 (configuration not stated) [NADOLOL] | 1.613 |
| CN(C)[C@@H]1C(O)=C(C(N)=O)C(=O)[C@@]2(O)C(O)=C3C(=O)c4c(O)cccc4[C@@](C)(O)[C@H]3[C@H](O)[C@@H]12 [OXYTETRACYCLINE] | 1.833 |
| Nc1ccn([C@H]2CC[C@@H](CO)O2)c(=O)n1 [ZALCITABINE] | 1.978 |
| O=C(O)c1cc(/N=N/c2ccc(O)c(C(=O)O)c2)ccc1O [OLSALAZINE] | 1.09 |
| COc1ccc2cc([C@H](C)C(=O)O)ccc2c1 [NAPROXEN] | 2.037 |
| CC(=O)N(CC(O)CO)c1c(I)c(C(=O)NCC(O)CO)c(I)c(C(=O)NCC(O)CO)c1I (configuration not stated) [IOHEXOL] | 1.176 |
| COc1cc(Cc2cnc(N)nc2N)cc(OC)c1OC [TRIMETHOPRIM] | 2.029 |
| NC(=O)N1C(=O)/C(=C(\O)c2cccs2)c2cc(Cl)ccc21 [TENIDAP] | 1.996 |
| Cc1ccccc1N1C(=O)c2cc(S(N)(=O)=O)c(Cl)cc2NC1C (configuration not stated) [METOLAZONE] | 1.863 |
| CCCCC(=O)N(Cc1ccc(-c2ccccc2-c2nnn[nH]2)cc1)[C@H](C(=O)O)C(C)C | 1.813 |
| CCc1oc2ccccc2c1C(=O)c1cc(Br)c(O)c(Br)c1 [BENZBROMARONE] | 1.919 |
| CC(NC(C)(C)C)C(=O)c1cccc(Cl)c1 (configuration not stated) [BUPROPION] | 1.987 |
| CC[C@H](C)C(=O)O[C@H]1C[C@H](O)C=C2C=C[C@H](C)[C@H](CC[C@@H](O)C[C@@H](O)CC(=O)O)[C@H]21 [PRAVASTATIN] | 1.643 |
| COc1ccc2c3c1O[C@H]1C(=O)CC[C@@]4(O)[C@@H](C2)N(C)CC[C@]314 [OXYCODONE] | 1.845 |
| NS(=O)(=O)c1cc2c(cc1Cl)N=CNS2(=O)=O [CHLOROTHIAZIDE] | 1.528 |
| N#C[C@H](O[C@@H]1O[C@H](CO[C@@H]2O[C@H](CO)[C@@H](O)[C@H](O)[C@H]2O)[C@@H](O)[C@H](O)[C@H]1O)c1ccccc1 [AMYGDALIN] | 1.176 |
| CN(C)C(=N)N=C(N)N [METFORMIN] | 1.799 |
| COc1ccc2c(c1)c(CC(=O)O)c(C)n2C(=O)c1ccc(Cl)cc1 [INDOMETHACIN] | 2.041 |
| CN(Cc1cc(Br)cc(Br)c1N)C1CCCCC1 [BROMHEXINE] | 1.903 |
| Nc1ccn(C[C@@H](CO)OCP(=O)(O)O)c(=O)n1.O.O [CIDOFOVIR] | 1.114 |
| CNC(=O)c1c(I)c(NC(C)=O)c(I)c(C(=O)O)c1I [IOTHALAMIC ACID] | 1.076 |
| CN1CCN2c3ccccc3Cc3ccccc3C2C1 (configuration not stated) [MIANSERIN] | 1.903 |
| CC(=O)CC(c1ccccc1)c1c(O)c2ccccc2oc1=O (configuration not stated) [WARFARIN] | 2.033 |
| CCN[C@@H]1C[C@H](N)[C@@H](O[C@H]2OC(CN)=CC[C@H]2N)[C@H](O)[C@H]1O[C@H]1OC[C@](C)(O)[C@H](NC)[C@H]1O [NETILMICIN] | 1 |

| Compound | log10(%HIA +10) |
| --- | --- |
| CO/N=C(\C(=O)N[C@@H]1C(=O)N2C(C(=O)O)=C(CSc3nc(=O)c(=O)[nH]n3C)CS[C@H]12)c1csc(N)n1 [CEFTRIAXONE] | 1.041 |
| COc1ccc2c3c1O[C@H]1[C@@H](O)C=C[C@H]4[C@@H](C2)N(C)CC[C@@]341 [CODEINE] | 2.021 |
| O=C1CN2Cc3c(ccc(Cl)c3Cl)N=C2N1 [ANAGRELIDE] | 1.903 |
| OC[C@H]1O[C@@H](O[C@@H]2[C@@H](CO)O[C@](O)(CO)[C@H]2O)[C@H](O)[C@@H](O)[C@H]1O [LACTULOSE] | 1.025 |
| O=C(O)CN(CCN(CC(=O)O)CC(=O)O)CC(=O)O [EDETIC ACID] | 1.176 |
| CCOC(=O)C1=C(C)NC(C)=C(C(=O)OC)C1c1cccc([N+](=O)[O-])c1 (configuration not stated) [NITRENDIPINE] | 1.991 |
| OC(Cn1cncn1)(Cn1cncn1)c1ccc(F)cc1F [FLUCONAZOLE] | 2.027 |
| C[C@H]1[C@H](NC(=O)/C(=N\OC(C)(C)C(=O)O)c2csc(N)n2)C(=O)N1S(=O)(=O)O [AZTREONAM] | 1.041 |
| IVERMECTIN | 1.845 |
| CC(=O)Oc1cc(C(C)C)c(OCCN(C)C)cc1C [MOXISYLYTE] | 1.903 |
| CC1(C)S[C@@H]2[C@H](NC(=O)[C@H](C(=O)O)c3ccsc3)C(=O)N2[C@H]1C(=O)O [TICARCILLIN] | 1.176 |
| COc1ccc2c(C(=S)N(C)CC(=O)O)cccc2c1C(F)(F)F [TOLRESTAT] | 1.881 |
| NCCCC[C@H](N[C@@H](CCc1ccccc1)C(=O)O)C(=O)N1CCC[C@H]1C(=O)O [LISINOPRIL ANHYDROUS] | 1.544 |
| COCC(=O)O[C@]1(CCN(C)CCCc2nc3ccccc3[nH]2)CCc2cc(F)ccc2[C@@H]1C(C)C [MIBEFRADIL] | 1.898 |
| CO/N=C(\C(=O)N[C@@H]1C(=O)N2C(C(=O)O)=C(CSc3nc(C)c(CC(=O)O)s3)CS[C@H]12)c1csc(N)n1 [CEFODIZIME] | 1 |
| C[C@H](CS)C(=O)N1CCC[C@H]1C(=O)O [CAPTOPRIL] | 1.892 |
| CCOC(=O)C(C)(C)Oc1ccc(Cl)cc1 [CLOFIBRATE] | 1.987 |
| CC(C)(C)NCC(O)c1ccc(O)c(CO)n1 (configuration not stated) [PIRBUTEROL] | 1.845 |
| C=CCc1ccccc1OCC(O)CNC(C)C (configuration not stated) [ALPRENOLOL] | 2.016 |
| C[C@@H]1O[C@@H](O[C@H]2C[C@@H](O)[C@]3(CO)[C@H]4[C@H](O)C[C@]5(C)[C@@H](C6=CC(=O)OC6)CC[C@]5(O)[C@@H]4CC[C@]3(O)C2)[C@H](O)[C@H](O)[C@H]1O [OUABAIN] | 1.057 |
| [H]/N=C(/N)N[C@H]1[C@H](O)[C@@H](O)[C@H](O[C@@H]2O[C@@H](C)[C@](O)(C=O)[C@H]2O[C@@H]2O[C@@H](CO)[C@H](O)[C@@H](O)[C@@H]2NC)[C@@H](N/C(N)=N\[H])[C@@H]1O [STREPTOMYCIN] | 1.041 |
| O=C(O)CCC(=O)Nc1ccc(S(=O)(=O)Nc2nccs2)cc1 [SUCCINYLSULFATHIAZOLE] | 1.176 |
| COCC1=C(C(=O)OC(C)OC(=O)OC(C)C)N2C(=O)[C@@H](NC(=O)/C(=N\OC)c3csc(N)n3)[C@H]2SC1 (some centres not stated) [CEFPODOXIME PROXETIL] | 1.778 |
| CC(=O)Oc1ccccc1C(=O)O [ASPIRIN] | 2.041 |
| CN(C)CCCOc1nn(Cc2ccccc2)c2ccccc12 [BENZYDAMINE] | 1.987 |
